“Also recorded” adds a separate entry of the source.
Legend:
SMPD3 = system: SMPD3
Text: (§1) (A) A scheme of the exosome transfer from cultured primary mouse hepatocytes to primary mouse bone marrow-derived macrophages (BMDMs). […] The same number of exosomes was used.
(§2) SMPD3 plays a critical role in EV secretion and affects components of EV such as RNA.

[1] = system: primary mouse bone marrow-derived macrophages (BMDMs); experiment: Exosome transfer from treated primary mouse hepatocytes to bone marrow-derived macrophages, inflammatory response (IL-6 mRNA); conditions: PA 100 μM for 20 hours; exosome fraction by MagCapture kit
Text: as §1, §2

N-SMase = molecular target: T1, N-SMase (Rattus norvegicus, UniProt O35049); conditions: rat brain; non-competitive inhibitor; cited from earlier work
T1 construct: host or cells: rat brain
T1 sequence (O35049 1-655): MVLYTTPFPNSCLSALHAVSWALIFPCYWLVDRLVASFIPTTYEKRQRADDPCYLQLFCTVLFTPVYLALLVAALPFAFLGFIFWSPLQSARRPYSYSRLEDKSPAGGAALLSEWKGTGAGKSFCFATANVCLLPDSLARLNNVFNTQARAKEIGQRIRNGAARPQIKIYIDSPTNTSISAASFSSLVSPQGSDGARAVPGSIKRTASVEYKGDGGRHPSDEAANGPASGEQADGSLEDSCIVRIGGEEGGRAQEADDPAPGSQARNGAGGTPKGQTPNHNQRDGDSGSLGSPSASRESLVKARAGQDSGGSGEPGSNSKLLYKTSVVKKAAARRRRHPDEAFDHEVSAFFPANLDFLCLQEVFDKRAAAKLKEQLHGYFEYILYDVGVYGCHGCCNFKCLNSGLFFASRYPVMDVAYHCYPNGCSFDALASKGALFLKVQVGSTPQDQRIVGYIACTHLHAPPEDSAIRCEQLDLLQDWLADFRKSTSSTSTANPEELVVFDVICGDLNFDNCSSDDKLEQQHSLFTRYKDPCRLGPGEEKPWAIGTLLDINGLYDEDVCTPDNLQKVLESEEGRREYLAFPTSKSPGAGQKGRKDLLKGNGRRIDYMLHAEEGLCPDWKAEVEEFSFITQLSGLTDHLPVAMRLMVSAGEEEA

[2] = system: exosome secretion and RNA loading onto exosomes; conditions: cited from earlier work

CCCCCCCCCCCCCCCC(=O)O [palmitate]
Expression of SMPD3 in cultured hepatocytes on palmitate exposure (SMPD3): induced
Inflammatory effect (IL-6 mRNA expression) in BMDMs of exosomes from hepatocytes treated with palmitate [1]: increase expression of IL-6 mRNA in BMDMs; also recorded: caused higher inflammatory responses in primary murine macrophages

Cl.Cl.O=C(/C=C/c1ccc(/C=C/C(=O)Nc2ccc(C3=NCCN3)cc2)cc1)Nc1ccc(C2=NCCN2)cc1 [GW4869]
IC50 (N-SMase): 1000 nM
Effect on RNA loading onto exosomes [2]: inhibit
Effect on exosome secretion [2]: inhibit

Source: patent publication US20200199575A1, “ROLE OF EXOSOMES, EXTRACELLULAR VESICLES, IN THE REGULATION OF METABOLIC HOMEOSTASIS” (CHILDREN'S HOSPITAL MEDICAL CENTER, priority 2017, published 2020)
